Columns and labels:
Type in all cases: physicochemical
[1] = Nucleation temperature / metastable zone during cooling of L-thyroxine solutions
From the text: The extent of the metastable zone depends on the rate of cooling. The lower the cooling rate, the higher the temperature at which nucleation begins.

[2] = Effect of ultrasonification intensity on crystal size (22 L crystallizer, 24 kHz sonotrode)
Experimental: In order to verify the findings from Example 5, additional experiments were carried out in a 22 L double-jacket glass crystallizer equipped with a draft tube and a 200 mm marine type propeller (Ne=0.3). A custom-made sonotrode (24 kHz) was used along with a UIP250 sound generator. In this example, the exact sonification power was not determined, although it was estimated to be in the order of 25-50 W. The findings are illustrated in Table 7.

[3] = Degradation of L-thyroxine in crystallization solution at elevated temperature; conditions: concentrations above 10% not feasible
Experimental: Concentrations of L-thyroxine above 10% were not feasible due to degradation at above 65° C.

[4] = Parametric sensitivity of L-thyroxine crystallization, particle size (one liter glass crystallizer, no ultrasound)
Experimental: The following trials were conducted to test the effects of various parameters other than ultrasonification on the crystallization of L-thyroxine. These trials were performed in a one liter glass crystallizer equipped with three baffles and a 60 mm marine type propeller (Ne=0.4). While most trials were run with the standard solution given in Example 1, propanol concentration was varied in trials 5 and 6. The final temperature for all trials was 10° C.

[5] = Effect of ultrasonification on crystallization, particle size by Aerosizer time-of-flight (2000 W, 20 kHz sonotrode)
From the text: L-thyroxine crystals were obtained by batch-wise cooling crystallization of a standard solution of L-thyroxine.
To crystallize L-thyroxine, the standard solution of L-thyroxine was heated to a specified temperature, introduced into a crystallizer and cooled at a controlled rate. As the solution cooled and L-thyroxine crystallized, the solution was exposed to ultrasonification.
A sonotrode complete with generator and transducer capable of emitting an radial ultrasonic pressure wave at a 20 kHz frequency and 2000 W of power (UIP 2000 industrial processor with block sonotrode) was mounted in the crystallizer. The L-thyroxine solution was prepared and agitated at 20 RPM. The temperature was stabilized at 50° C., and the ultrasonic generator was turned on in continuous mode and at 100% amplitude. The cooling sequence was then initiated and the temperature of the solution was lowered at 0.5° C. per minute to a final set point of 10° C. The period of time that the ultrasound was applied to the solution as it was cooling to this set point was varied. For the first trial, a controlled crystallization was allowed to occur without any application of ultrasound to the product solution. For the second trial, the ultrasound remained on until a temperature of 30° C. was reached. At this point the ultrasound was turned off while the solution continued to cool to 10° C. When 10° C. was reached, the slurry was sampled and heated back up to 50° C. to redissolve the solid. The third trial proceeded in the same manner, but when the solution reached a temperature of 26° C., the ultrasound was turned off and the solution continued to cool to 10° C. The trials continued in this manner, changing the temperature at which the ultrasound was turned off by 4° C. each time until for the last trial, the solution was sonified throughout cooling. During this last trial, ultrasound was maintained at the cooling set point for a period of one hour, with samples being pulled at the half hour and one hour mark. This slurry was then transferred to a filter dryer for filtering, washing and drying. Once the product was dry, a sample was taken to determine the additional effects on particle size of the manufacturing process downstream of the crystallizer.
Particle size analysis for all samples was performed with an Aerosizer aerodynamic time-of-flight particle-sizing instrument.
Samples for all of the trials shown in the table above were taken from the crystallizer in the slurry form. A portion of these slurry samples was filtered, washed with ethanol and dried at ambient temperature. A reduction in particle size on a volume basis was apparent between trial 1, which underwent no sonification, and trials 2-7, which underwent various periods of ultrasound application. The magnitude of this reduction is roughly three fold.

[6] = Effect of ultrasonification intensity on crystal size (one-liter flask in ultrasonic bath, ≈40 kHz); conditions: for C.V. Coefficient of variation = (X86 − X14)/(2 * X50): unit assumed
Experimental: A one-liter round bottom glass flask was filled with the standard L-thyroxine solution and cooled under stirring. The flask was then immersed in an ultrasonic bath (Sonorex Super Bandelin DK102, ≈40 kHz) to study the influence of different sonification intensities on the size of L-thyroxine crystals. The frequency and power dissipated by the bath was measured using a hydrophone. As an additional parameter, the onset point of sonification and its duration was also varied.

[7] = Solubility of L-thyroxine in standard solution (cooling/redissolving, light probe)
Experimental: The solubility of L-thyroxine was determined by studying a standard solution of L-thyroxine.
The L-thyroxine solution was then transferred to a glass crystallizer and cooled until the L-thyroxine crystallized spontaneously. Then, the temperature of the solution was slowly raised until the crystallized L-thyroxine was redissolved. The crystallization status of the solution was determined using a light probe. The light probe was comprised of two parallel rods with a light source and a photocell. The light probe measured the amount of crystals in the solution by determining the change in the amount of light that was absorbed or scattered by the solution. In solutions with crystals, the photocells registered a weakened beam as compared to beams sent through clear solutions.
Data obtained from these experiments is plotted in FIG. 1. The solubility of L-thyroxine in the standard solution is given by black circles, interpolated by the solid line.
The temperature of saturation at standard conditions (4.84% w/w) was 42° C. […] A theoretical yield of 83% of L-thyroxine was calculated. […] At a concentration of 20% propanol or 4% sodium carbonate, the solubility of L-thyroxine at lower temperatures was not determined. Under these conditions, sodium carbonate co-precipitated with sodium L-thyroxine at around 10° C.

[8] = trial 1: ultrasound off, cooled 50 to 10° C. at 0.5° C. per minute
[9] = trial 2: ultrasound on at 50° C., off at 30° C.
[10] = trial 3: ultrasound on at 50° C., off at 26° C.
[11] = trial 4: ultrasound on at 50° C., off at 22° C.
[12] = trial 5: ultrasound on at 50° C., off at 18° C.
[13] = trial 6: ultrasound on at 50° C., off at 14° C.
[14] = trial 7: ultrasound on at 50° C., off at 10° C.
[15] = trial 3: 10% US switched on at 32.5° C. (1K above expected nucleation temperature)
[16] = trial 5: 50% US switched on at 32.5° C.
[17] = trial 6: 100% US (roughly 0.18 W/cm^2)
[18] = trial 7: 100% US switched on at 32.5° C.
[19] = trial 8: 100% US switched off immediately after nucleation

In the case of N[C@@H](Cc1cc(I)c(Oc2cc(I)c(O)c(I)c2)c(I)c1)C(=O)O.[Na] [sodium L-thyroxine], the “point of nucleation of the aqueous solution” value ([1]; in the absence of ultrasound) is reported as “approximately 32 °C”.
With N[C@@H](Cc1cc(I)c(Oc2cc(I)c(O)c(I)c2)c(I)c1)C(=O)O [L-thyroxine] the “reduction of particle size” value ([2]; smallest ultrasound intensity versus no ultrasound) was 50%, the Crystal size ([2]; trial 1: No Ultrasound) was 28 μm and the Crystal size ([2]; trial 2: 10% Ultrasound) was 15 μm. The Crystal size ([2]; trial 3: 100% Ultrasound) was 14 μm, the “metastable zone (range of supercooling)” value ([1]; aqueous solutions during cooling, depends on rate of cooling) was 5-11 °C and the “increase in the temperature at which solids appeared” value ([1]; plant scale, sonified crystallizations, cooling rate 0.5° C. per minute) was 9-18 °C. For the same compound, the “decrease in the metastable zone” value ([1]; sonified solution, cooling rate 0.17-0.5° C. per minute) was 1-3 °C, the “Nucleation Temperature” value ([1]; trial 1: ultrasound off) was 25 °C and the “Nucleation Temperature” value ([1]; trial 2: ultrasound on) was 35 °C. The “Nucleation Temperature” value ([1]; trial 3: ultrasound on) was 38 °C, the “Nucleation Temperature” value ([1]; trial 4: ultrasound on) was 38 °C and the “Nucleation Temperature” value ([1]; trial 5: ultrasound on) was 34 °C. The “Nucleation Temperature” value ([1]; trial 6: ultrasound on) was 36 °C, the “Nucleation Temperature” value ([1]; trial 7: ultrasound on) was 34 °C and the temperature of degradation [3] was “above 65 °C”. For the same compound, the Particle size ([4]; trial 1: cooling 20/10 K/h, 0.5 W/kg, dried 10 mbar 50° C.) was 15 μm, the Particle size ([4]; trial 1: cooling 20/10 K/h, 0.5 W/kg, dried 1013 mbar 25° C. openly in lab) was 30 μm and the Particle size ([4]; trial 2: cooling 20/10 K/h, 5 W/kg (stirrer rate increased 3x), dried 10 mbar 35° C.) was 18 μm. The Particle size ([4]; trial 3: cooling 30 K/h, 0.5 W/kg, dried 10 mbar 35° C.) was 19 μm, the Particle size ([4]; trial 4: cooling 30 K/h, 5 W/kg, dried 1013 mbar RT) was 10 μm and the Particle size ([4]; trial 5: 20% propanol, cooling 30 K/h, 5 W/kg, dried 50 mbar 35° C.) was <20 μm. The Particle size ([4]; trial 6: 10% propanol, cooling 30 K/h, 5 W/kg, dried 50 mbar 35° C.) was >30 μm, the Particle size ([4]; trial 7: cooling 30 K/h, 0.5 W/kg, dried 1013 mbar RT, rinsed with 90/10 EtOH/water) was 16 μm and the Particle size ([4]; trial 8: cooling 30 K/h, 5 W/kg, dried 50 mbar 35° C., rinsed with 90/10 EtOH/water) was 11 μm. The Particle size ([4]; trial 9: cooling 30 K/h, 2 W/kg, dried 50 mbar 35° C., rinsed with 90/10 EtOH/water) was 13 μm, the Particle size ([4]; trial 10: as above, 1 hour stirring at final temperature) was 15 μm and the Particle size ([4]; trial 10: as above, 2 hour stirring at final temperature) was 15 μm. It also gave a Particle size ([4]; trial 10: cooling 30 K/h, 0.5 W/kg, dried 50 mbar 35° C.) of 15 μm, a Mean Particle Size (Number) [5, 8] of 3 µm and a Mean Particle Size Volume [5, 8] of 20.8 µm. The Mean Particle Size (Number) [5, 9] was 2.4 µm, the Mean Particle Size Volume [5, 9] was 6.6 µm and the Mean Particle Size (Number) [5, 10] was 2.3 µm. For the same compound, the Mean Particle Size Volume [5, 10] was 5.4 µm, the Mean Particle Size (Number) [5, 11] was 2.5 µm and the Mean Particle Size Volume [5, 11] was 5.7 µm. The Mean Particle Size (Number) [5, 12] was 2.4 µm, the Mean Particle Size Volume [5, 12] was 5.3 µm and the Mean Particle Size (Number) [5, 13] was 2.4 µm. It also gave a Mean Particle Size Volume [5, 13] of 5.2 µm, a Mean Particle Size (Number) [5, 14] of 3.1 µm and a Mean Particle Size Volume [5, 14] of 6.1 µm. For the same compound, the “reduction in particle size on a volume basis” value ([5]; trials 2-7 (ultrasound) versus trial 1 (no sonification)) was “roughly three fold”, the “Average Size” value ([6]; trial 1: 0% US intensity) was 46 μm and the Undercooling ([6]; trial 1: 0% US intensity) was 13.6 °C. The C.V. Coefficient of variation = (X86 − X14)/(2 * X50) ([6]; trial 1: 0% US intensity) was 74%, the “Average Size” value ([6]; trial 2: 10% US) was 13 μm and the Undercooling ([6]; trial 2: 10% US) was 12.1 °C. For the same compound, the C.V. Coefficient of variation = (X86 − X14)/(2 * X50) ([6]; trial 2: 10% US) was 70%, the “Average Size” value [6, 15] was 11 μm and the Undercooling [6, 15] was 12.8 °C. For the same compound, the C.V. Coefficient of variation = (X86 − X14)/(2 * X50) ([6]; trial 3: 10% US switched on at 32.5° C.) was 84%, the “Average Size” value ([6]; trial 4: 50% US) was 13 μm and the Undercooling ([6]; trial 4: 50% US) was 10.6 °C. The C.V. Coefficient of variation = (X86 − X14)/(2 * X50) ([6]; trial 4: 50% US) was 65%, the “Average Size” value [6, 16] was 11 μm and the Undercooling [6, 16] was 12.5 °C. The C.V. Coefficient of variation = (X86 − X14)/(2 * X50) [6, 16] was 69%, the “Average Size” value [6, 17] was 11 μm and the Undercooling [6, 17] was 11.9 °C. For the same compound, the C.V. Coefficient of variation = (X86 − X14)/(2 * X50) ([6]; trial 6: 100% US) was 61%, the “Average Size” value [6, 18] was 11 μm and the Undercooling [6, 18] was 12.5 °C. The C.V. Coefficient of variation = (X86 − X14)/(2 * X50) [6, 18] was 62%, the “Average Size” value [6, 19] was 22 μm and the Undercooling [6, 19] was 10.9 °C. The C.V. Coefficient of variation = (X86 − X14)/(2 * X50) [6, 19] was 74%, the “effect of solution composition on solubility” value ([7]; higher sodium carbonate or propanol concentrations) was “the inverse effect is observed” and the “effect of solution composition on solubility” value ([7]; reduction of sodium carbonate or propanol content of the initial solution) was “reduces L-thyroxine solubility”. It also gave a temperature of saturation ([7]; standard solution, 4.84% w/w L-thyroxine, 14.0% n-propanol, 2.85% sodium carbonate) of 42 °C and a solubility ([7]; standard solution, end of the cooling curve, 10° C.) of 0.78%.

From US7378545B2, “Crystallization of amino acids using ultrasonic agitation” (Abbott Laboratories, priority 2002, dated 2008)
